Data on six compounds can be found in US20230039917A1, “EXO-AZA SPIRO INHIBITORS OF MENIN-MLL INTERACTION” (Janssen Pharmaceutica NV, priority 2017, published 2023).

Where two headings read alike, the source gives them in different places.

Assay [1] relates to MOLM14 cells. The assay is described as follows: Proliferation assay A (spheroid assay) MOLM14. Type of assay: cell-based. The note with it: Homo sapiens, MOLM-14, 192 h, 8 d, AUC of confluence against time, absolute IC50, read-out: (3a) Spheroid assay MOLM14 (IC50(μM)) Assay A. As to the method:
(§1) 3a) Proliferation Assay A
(§2) The anti-proliferative effect of menin/MLL protein/protein interaction inhibitor test compounds was assessed in human leukemia cell lines. The cell lines MV-4-11 and MOLM14 harbor MLL translocations and express the MLL fusion proteins MLL-AF4 and MLL-AF9, respectively, as well as the wildtype protein from the second allele. […] K562 was used as a control cell line containing two MLL wildtype alleles in order to exclude compounds that display general cytotoxic effects.
(§3) MV-4-11 and MOLM14 were cultured in RPMI-1640 (Sigma Aldrich) supplemented with 10% fetal bovine serum (HyClone), 2 mM L-glutamine (Sigma Aldrich) and 50 μg/ml gentamycin (Gibco). K562 were propagated in RPMI-1640 (Sigma Aldrich) supplemented with 20% fetal bovine serum (HyClone), 2 mM L-glutamine (Sigma Aldrich) and 50 μg/ml gentamycin (Gibco).
(§4) In order to assess the anti-proliferative effects, 1,500 MV-4-11, 300 MOLM14 or 750 K562 cells were seeded in 200 μl media per well in 96-well round bottom, ultra-low attachment plates (Costar, catalogue number 7007). Cell seeding numbers were chosen based on growth curves to ensure linear growth throughout the experiment. Test compounds were added at different concentrations and the DMSO content was normalized to 0.3%. Cells were incubated for 8 d at 37° C. and 5% CO2. Spheroid like growth was monitored in real-time by live-cell imaging (IncuCyteZOOM, Essenbio, 4× objective) acquiring one image every four hours for 8 d. Confluence (%) as a measure of spheroid size was determined using an integrated analysis tool.
(§5) In order to determine the cumulative effect of the test compounds over time, the area under the curve (AUC) in a plot of confluence against time was calculated. Confluence at the beginning of the experiment (t=0) was used as baseline for the AUC calculation.
(§6) Absolute IC50 values were calculated according to the following procedure:
(§7) % Control=(AUC sample/AUC control)*100
(§8) AUC control=mean AUC of control values (cells without compound/DMSO as vehicle control)
(§9) A non-linear curve fit was applied using the least squares (ordinary) fit method to the plot of % control versus compound concentration. Based on this, the absolute IC50 value (half maximal inhibitory concentration of the test compound causing an anti-proliferative effect of 50% relative to the vehicle control) was calculated.

Assay [2] deals with T1, menin.FITC-MBM1 complex (terbium chelate-labeled menin) (Homo sapiens, UniProt O00255, F410E/T541A).
T1 construct: Menin (a.a. 1-610-6×his tag) was labeled with terbium cryptate as follows
T1 sequence (O00255 with tags, fused parts or gaps F410E/T541A): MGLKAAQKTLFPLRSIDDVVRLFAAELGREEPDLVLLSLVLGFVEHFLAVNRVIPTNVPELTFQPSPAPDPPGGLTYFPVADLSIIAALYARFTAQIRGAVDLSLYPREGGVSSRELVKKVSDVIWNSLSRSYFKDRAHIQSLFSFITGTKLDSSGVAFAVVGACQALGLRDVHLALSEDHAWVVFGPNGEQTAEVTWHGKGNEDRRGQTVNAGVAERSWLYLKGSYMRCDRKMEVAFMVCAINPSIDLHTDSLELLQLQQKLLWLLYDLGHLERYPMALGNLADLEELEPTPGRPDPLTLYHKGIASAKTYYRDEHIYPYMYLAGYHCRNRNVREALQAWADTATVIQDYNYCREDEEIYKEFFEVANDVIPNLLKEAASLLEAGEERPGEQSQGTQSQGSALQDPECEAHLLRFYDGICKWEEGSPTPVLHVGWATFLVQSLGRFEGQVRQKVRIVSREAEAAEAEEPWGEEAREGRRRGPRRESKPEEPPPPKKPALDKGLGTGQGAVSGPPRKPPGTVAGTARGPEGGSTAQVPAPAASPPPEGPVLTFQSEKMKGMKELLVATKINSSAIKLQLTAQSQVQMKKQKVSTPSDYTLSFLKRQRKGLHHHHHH
The assay is described as follows: Menin/MLL homogenous time-resolved fluorescence (HTRF) assay. Type of assay: binding. The method, then:
2) Menin/MLL Homogenous Time-Resolved Fluorescence (HTRF) Assay
To an untreated, white 384-well microtiter plate was added 40 nL 200× test compound in DMSO and 4 μL 2× terbium chelate-labeled menin (vide infra for preparation) in assay buffer (40 mM Tris.HCl, pH 7.5, 50 mM NaCl, 1 mM DTT and 0.05% Plutonic F-127). After incubation of test compound and terbium chelate-labeled menin for 5 min at ambient temperature, 4 μL2× FITC-MBM1 peptide (FITC-β-alanine-[…]-NH2) in assay buffer was added, the microtiter plate centrifuged at 1000 rpm for 1 min and the assay mixtures incubated for 15 min at ambient temperature. The relative amount of menin.FITC-MBM1 complex present in an assay mixture is determined by measuring the homogenous time-resolved fluorescence (HTRF) of the terbium/FITC donor/acceptor fluorphore pair using a BMG Pherastar plate reader (ex. 337 nm/terbium em. 490 nm/FITC em. 520 nm) at ambient temperature. The degree of fluorescence resonance energy transfer (the HTRF value) is expressed as the ratio of the fluorescence emission intensities of the FITC and terbium fluorophores (F^em 520 nm/F^em 490 nm). The final concentrations of reagents in the binding assay are 100 pM terbium chelate-labeled menin (location 1) or 600 pM terbium chelate-labeled menin (location 2), 75 nM FITC-MBM1 peptide and 0.5% DMSO in assay buffer. Dose-response titrations of test compounds are conducted using an 11 point, three-fold serial dilution scheme, starting typically at 25 μM (location 1) or starting typically at 10 μM (location 2).
Compound potencies were determined by first calculating % inhibition at each compound concentration according to equation 1:
% inhibition=((HC−LC)−(HTRF^compound−LC))/(HC−LC))*100 (Eqn 1)
Where LC and HC are the HTRF values of the assay in the presence or absence of a saturating concentration of a compound that competes with FITC-MBM1 for binding to menin, and HTRF^compound is the measured HTRF value in the presence of the test compound. HC and LC HTRF values represent an average of at least 16 replicates per plate.
% inhibition=Bottom+(Top−Bottom)/(1+10^((log IC50−log [cmpd])*h)) (Eqn 2)
Where Bottom and Top are the lower and upper asymptotes of the dose-response curve, respectively, IC50 is the concentration of compound that yields 50% inhibition of signal and h is the Hill coefficient.
Preparation of Terbium cryptate labeling of Menin: Menin (a.a. 1-610-6×his tag) was labeled with terbium cryptate as follows. 2 mg of Menin was buffer exchanged into 1× phosphate buffered saline. 16 uM Menin was incubated with 4-fold molar excess NHS-terbium cryptate (Cisbio Bioassays, Bedford, Mass.) for 2 hours at room temperature. The labeled protein was purified away from free label by running the reaction over a Superdex 200 Increase 10/300 GL column at 0.75 ml/min. Peak fractions were collected, aliquoted and frozen at −80° C.

Assay [3] deals with MV-4-11 cells. Kind of assay: Proliferation assay A (spheroid assay) MV-4-11. Type of assay: cell-based. The note with it: Homo sapiens, MV4-11, 192 h, 8 d, AUC of confluence against time, absolute IC50, read-out: (3a) Spheroid assay MV-4-11 (IC50(μM)) Assay A. As to the method:
as §1, §2, §3, §4, §5, §6, §7, §8, §9

Assay [4] deals with MOLM14 cells. The assay is described as follows: Proliferation assay B (spheroid assay) MOLM14. The conditions noted are these: Homo sapiens, MOLM-14, 192 h, confluence at day 8, read-out: (3b) Spheroid assay MOLM14 (IC50(μM)) Assay B. Type of assay: cell-based, human. As to the method:
(§10) 3b) Proliferation Assay B
as §2, §3
as §4, with “MOLM14 cells” for “MOLM14”, “measured” for “monitored”, “images at day 8.” for “one image every four hours for 8 d.”
In order to determine the effect of the test compounds over time, the confluence in each well as a measure of spheroid size, was calculated. Confluence […] at the beginning of the experiment (t=0) was used as baseline for the calculation.
Absolute IC50 values were calculated as percent change in confluence as follows:
LC=Low Control: cells treated with 1 μM of the cytotoxic agent staurosporin
HC=High Control: Mean confluence (%) (DMSO treated cells)
Effect=100−(100*(Sample−LC)/(HC−LC))
To determine the IC50 a curve is fitted to the plot of % Effect vs Log 10 compound concentration using a sigmoidal fit with a variable slope and fixing the maximum to 100% and the minimum to 0%.

Assay [5] deals with MV-4-11 cells. Kind of assay: Proliferation assay B (spheroid assay) MV-4-11. Type of assay: cell-based. The conditions noted are these: Homo sapiens, MV4-11, 192 h, confluence at day 8, read-out: (3b) Spheroid assay MV-4-11 (IC50(μM)) Assay B. The method, then: as §10, §2
MV-4-11 and MOLM14 were cultured in RPMI-1640 (Sigma Aldrich) supplemented with 10% fetal bovine serum (HyClone), 2 mM L-glutamine (Sigma Aldrich) and 50 μg/ml gentamycin (Gibco). […]
In order to assess the anti-proliferative effects, 1,500 MV-4-11, 300 MOLM14 cells or 750 K562 cells were seeded in 200 μl media per well in 96-well round bottom, ultra-low attachment plates (Costar, catalogue number 7007). […] Spheroid like growth was measured in real-time by live-cell imaging (IncuCyteZOOM, Essenbio, 4× objective) acquiring images at day 8. Confluence (%) as a measure of spheroid size was determined using an integrated analysis tool.
In order to determine the effect of the test compounds over time, the confluence in each well as a measure of spheroid size, was calculated. […]
Absolute IC50 values were calculated as percent change in confluence as follows: […]

The mark [6] stands for this setting: location 1, read-out: (2) location 1 Menin HTRF assay (IC50 (nM)).
Setting [7] is: location 2, read-out: (2) location 2 Menin HTRF assay (IC50 (nM)).

In general, IC50 refers to the concentration needed to halve the response being measured. For the compound `O=c1[nH]c2cc(CN[C@H]3CCC4(C3)CN(c3ncnc5sc(CC(F)(F)F)cc35)C4)ccc2o1` (single isomer, unassigned) [Compound 58], the concentration for half-maximal inhibition (IC50) in the assay on MOLM14 cells [1] worked out at 0.14 µM.
With `FC(F)(F)Cc1cc2c(N3CC4(CCC(NCc5ccccc5)C4)C3)ncnc2s1` (single isomer, unassigned) [Compound 46], the IC50 was 22 nM in assay [2] (setting [6]), 0.31 µM in the assay with MV-4-11 cells [3] and 1.87 µM in the assay with MOLM14 cells [1].
`O=c1[nH]c2ccc(CN[C@H]3CCC4(C3)CN(c3ncnc5sc(CC(F)(F)F)cc35)C4)cc2o1` (single isomer, unassigned) [Compound 56]: the values for the IC50 (in assay [2] (setting [7]); in the assay on MV-4-11 cells [3]; with MOLM14 cells [1]) were 5.1 nM, 0.45 µM and 2 µM, respectively.
With `N#CCn1c(=O)[nH]c2cc(CNC3CCC4(C3)CN(c3ncnc5sc(CC(F)(F)F)cc35)C4)ccc21` (stereo not shown) [Compound 99], the values for the IC50 (in assay [2] (setting [7]); in the assay with MOLM14 cells [4]; with MV-4-11 cells [5]) were 1.1 nM, 0.19 µM and 0.03 µM, respectively.
Turning to `FC(F)(F)Cc1cc2c(N3CCC4(CCC(Nc5ccc(-c6cc[nH]n6)cc5)C4)C3)ncnc2s1` (stereo not shown) [Compound 138], the 50% inhibitory concentration (IC50) in assay [2] (setting [7]) was 8.8 nM; with MV-4-11 cells [3], 3.92 µM; in the assay with MOLM14 cells [1], more than 3.75 µM.
Consider `FC(F)(F)Cc1cc2c(N3CC4(CC[C@H](NCc5ccccc5)C4)C3)ncnc2s1` [Compound 45], for which the 50% inhibitory concentration (IC50) in assay [2] (setting [6]) came out at 20.4 nM; with MV-4-11 cells [3], 0.41 µM; in the assay with MOLM14 cells [1], 2.36 µM.
